# Experimental data published in patent US20220265629A1, “TREATMENT OF SYSTOLIC DYSFUNCTION AND HEART FAILURE WITH REDUCED EJECTION FRACTION WITH THE COMPOUND (R)-4-(1-((3-(DIFLUOROMETHYL)-1-METHYL-1H-PYRAZOL-4-YL)SULFONYL)-1-FLUOROETHYL)-N-(ISOXAZOL-3-YL)PIPERIDINE-1-CARBOXAMIDE” (MyoKardia, Inc., priority 2019, published 2022).
# Where “and” joins values, the source holds several entries; their conditions need not be identical. Equal values may be shown once. Read-outs that look alike come from different tables or passages of the source.
# Experiment: HFrEF study Part 2 (MAD Cohorts A-D): plasma pharmacokinetics
# Assay type: in vivo, human
# Details: for Plasma concentration, Mean / Plasma concentration, Median: MAD cohorts; for AUC / Cmax / half-life: human, plasma, oral; for half-life: read-out: t1/2, λz (converted)
# Description: This was a randomized, parallel-group, DB, placebo-controlled, adaptive design, sequential ascending (oral) multiple-close study in stable patients with heart failure. Four MAD Cohorts (A, B, C, D) were enrolled (FIG. 5B). An SRC reviewed results from each cohort and determined the close and confirmed initial sample size for the subsequent cohort. Additionally, the first 3 patients in each cohort had LVEF≥25%; the SRC reviewed preliminary safety data from these patients and decided whether to open cohort enrollment to patients with LVEF<25%.
# After Screening and qualification, patients were confined to a clinical testing facility from Day 1 (Check-in) to Day 11. Each patient initially received placebo BID for 2 days (Days 1 and 2) in single-blinded manner (“run-in” during acclimatization to confinement in the Clinical Testing Unit) prior to receiving the randomized DB study drug treatment on Day 3. All patients then received either placebo or active Compound I for 7 days (Days 3 through 9), with a follow-up period with patients discharged from the unit on Day 11. A final follow-up clinic visit was conducted on Day 16. More than one patient could be closed in a cohort at the same time or during the same week depending on administrative issues, i.e., capacity and scheduling.
# Patients were closed twice daily (every 12 hours). Doses could occur±2 hours from scheduled dosing times as long as closes were separated by at least 10 hours and by no more than 14 hours. The exception to the twice daily dosing was on Day 9 (last dose of randomized DB study drug treatment). On Day 9, a single morning close was administered.
# During the study, multiple evaluations were performed that included: serial TTE assessments (11-14 TTEs per patient on Days 1, 2, 3, 4, 7, 9, 10 and 11); PK sampling (PK sample collected concomitantly with every post-randomization echocardiogram); ECGs (on Days 2, 3, 4, 7, 9, 10, 11 and 16); troponin (collected concomitantly with every post-randomization ECG); and safety laboratory assessments. Confined patients underwent continuous telemetry. Holter monitoring was performed in all patients at baseline (Days 1-2) and at the end of double-blind treatment (Days 7-9). Vital signs were collected daily.
# Study medication consisted of Compound I 5 mg tablets, 25 mg tablets, 100 mg tablets, or matching placebo tablets. In Part 1 (SAD), Compound I or placebo was administered after an overnight fast (at least 6 hours), while in Part 2 (MAD), Compound I was administered after a 2 hour fast (Cohort A) or with food (Cohorts B, C, and D). The close was ingested with a minimum of 240 mL of water, but more water was ingested as needed. The entire close was administered over a period of up to 15 minutes. The time of close used to determine future assessments was the time the last tablet was taken. In the cohorts for Part 2 (MAD), a BID regimen was used.
# In Part 2 (MAD), Cohort A patients fasted for 2 hours before and 2 hours after dosing. For example, if morning dosing occurred at 8 AM, patients could have a snack at 6 AM and a full breakfast at 10 AM. If afternoon dosing occurred at 8 PM, patients could have dinner at 6 PM and a snack at 10 PM. […] Cohort B, C, and D patients ingested food with each close.
# [1] = MAD Cohort C, 75 mg BID (with food), individual subjects
# [2] = MAD Cohort D, 100 mg BID (with food), Mean
# [3] = plasma concentration group 2000-<3500 ng/mL (n = 26)
# [4] = plasma concentration group <2000 ng/mL (n = 30)
# [5] = plasma concentration group ≥3500 ng/mL (n = 13)
smiles,measurement,setting,value
"Cn1cc(S(=O)(=O)[C@@](C)(F)C2CCN(C(=O)Nc3ccon3)CC2)c(C(F)F)n1 [Compound I, (R)-4-(1-((3-(difluoromethyl)-1-methyl-1H-pyrazol-4-yl)sulfonyl)-1-fluoroethyl)-N-(isoxazol-3-yl)piperidine-1-carboxamide]","Cmax, Day 1",[1],1020 ng/mL and 1190 ng/mL and 1030 ng/mL and 1150 ng/mL and 1650 ng/mL and 1360 ng/mL
same,"Cmax, SS",[1],3860 ng/mL and 1840 ng/mL and 3810 ng/mL and 4140 ng/mL and 4940 ng/mL and 3220 ng/mL and 3930 ng/mL and 4720 ng/mL and 5010 ng/mL
same,"Cmin, SS",[1],1740 ng/mL and 954 ng/mL and 2660 ng/mL and 3240 ng/mL and 3910 ng/mL and 2530 ng/mL and 2440 ng/mL and 3930 ng/mL and 3900 ng/mL
same,"t1/2, λz",[1],13.55 h and 15.34 h and 20.46 h and 23.11 h and 41.54 h and 15.67 h and 13.72 h and 30.37 h and 24.06 h
same,AUC_TAU,"MAD Cohort C, 75 mg BID (with food), steady state, individual subjects",32340 ng·h/mL and 15700 ng·h/mL and 37520 ng·h/mL and 44850 ng·h/mL and 53180 ng·h/mL and 35560 ng·h/mL and 38470 ng·h/mL and 51200 ng·h/mL and 53690 ng·h/mL
same,Accumulation Ratio AUC tau,[2],4.65
same,Accumulation Ratio Cmax,[2],3.89
same,Accumulation_Index,[2],3.30
same,"Cavg, ss",[2],5030 ng/mL
same,"Cmin, SS",[2],4333 ng/mL
same,"Plasma concentration, Mean",[3],2716 ng/mL
same,"Plasma concentration, Median",[3],2740 ng/mL
same,"Plasma concentration, Mean",[4],1169 ng/mL
same,"Plasma concentration, Median",[4],1220 ng/mL
same,"Plasma concentration, Mean",[5],4448 ng/mL
same,"Plasma concentration, Median",[5],4290 ng/mL
same,AUC,"50 mg, MAD Cohort B, 50 mg BID (with food), Mean, read-out: AUCtau, Day 1",7300 ng·h/mL
same,Cmax,"50 mg, MAD Cohort B, 50 mg BID (with food), Mean, read-out: Cmax, Day 1",806 ng/mL
same,Cmax,"50 mg, MAD Cohort B, 50 mg BID (with food), Mean, read-out: Cmax, SS",2770 ng/mL
same,half-life,"50 mg, MAD Cohort B, 50 mg BID (with food), Mean",25.1 h
same,AUC,"50 mg, MAD Cohort B, 50 mg BID (with food), individual subjects, read-out: AUCtau, Day 1",7430 ng·h/mL
same,Cmax,"50 mg, MAD Cohort B, 50 mg BID (with food), individual subjects, read-out: Cmax, Day 1",933 ng/mL
same,Cmax,"50 mg, MAD Cohort B, 50 mg BID (with food), individual subjects, read-out: Cmax, SS",2950 ng/mL
same,AUC,"50 mg, MAD Cohort B, 50 mg BID (with food), steady state, Mean, read-out: AUC_TAU",28900 ng·h/mL
same,AUC,"50 mg, MAD Cohort B, 50 mg BID (with food), steady state, individual subjects, read-out: AUC_TAU",29700 ng·h/mL
same,AUC,"75 mg, MAD Cohort A, 75 mg BID (4 h fasting), Mean, read-out: AUCtau, Day 1",10400 ng·h/mL
same,Cmax,"75 mg, MAD Cohort A, 75 mg BID (4 h fasting), Mean, read-out: Cmax, Day 1",1120 ng/mL
same,Cmax,"75 mg, MAD Cohort A, 75 mg BID (4 h fasting), Mean, read-out: Cmax, SS",4050 ng/mL
same,half-life,"75 mg, MAD Cohort A, 75 mg BID (4 h fasting), Mean",21.4 h
same,AUC,"75 mg, MAD Cohort A, 75 mg BID (4 h fasting), individual subjects, read-out: AUCtau, Day 1",10600 ng·h/mL
same,Cmax,"75 mg, MAD Cohort A, 75 mg BID (4 h fasting), individual subjects, read-out: Cmax, Day 1",1060 ng/mL
same,Cmax,"75 mg, MAD Cohort A, 75 mg BID (4 h fasting), individual subjects, read-out: Cmax, SS",4580 ng/mL
same,AUC,"75 mg, MAD Cohort A, 75 mg BID (4 h fasting), steady state, Mean, read-out: AUC_TAU",41000 ng·h/mL
same,AUC,"75 mg, MAD Cohort A, 75 mg BID (4 h fasting), steady state, individual subjects, read-out: AUC_TAU",46200 ng·h/mL
same,AUC,"75 mg, MAD Cohort C, 75 mg BID (with food), Mean, read-out: AUCtau, Day 1",10600 ng·h/mL
same,Cmax,"75 mg, MAD Cohort C, 75 mg BID (with food), Mean, read-out: Cmax, Day 1",1250 ng/mL
same,Cmax,"75 mg, MAD Cohort C, 75 mg BID (with food), Mean, read-out: Cmax, SS",3940 ng/mL
same,half-life,"75 mg, MAD Cohort C, 75 mg BID (with food), Mean",22 h
same,Cmax,"75 mg, MAD Cohort C, 75 mg BID (with food), individual subjects, read-out: Cmax, Day 1",1780 ng/mL
same,AUC,"75 mg, MAD Cohort C, 75 mg BID (with food), steady state, Mean, read-out: AUC_TAU",40300 ng·h/mL
same,AUC,"100 mg, MAD Cohort D, 100 mg BID (with food), Mean, read-out: AUCtau, Day 1",12900 ng·h/mL
same,Cmax,"100 mg, MAD Cohort D, 100 mg BID (with food), Mean, read-out: Cmax, Day 1",1480 ng/mL
same,Cmax,"100 mg, MAD Cohort D, 100 mg BID (with food), Mean, read-out: Cmax, SS",5680 ng/mL
same,half-life,"100 mg, MAD Cohort D, 100 mg BID (with food), Mean",23.1 h
same,AUC,"100 mg, MAD Cohort D, 100 mg BID (with food), individual subjects, read-out: AUCtau, Day 1",11600 ng·h/mL
same,Cmax,"100 mg, MAD Cohort D, 100 mg BID (with food), individual subjects, read-out: Cmax, Day 1",1560 ng/mL
same,Cmax,"100 mg, MAD Cohort D, 100 mg BID (with food), individual subjects, read-out: Cmax, SS",5210 ng/mL
same,half-life,"100 mg, MAD Cohort D, 100 mg BID (with food), individual subjects",24.3 h
same,AUC,"100 mg, MAD Cohort D, 100 mg BID (with food), steady state, Mean, read-out: AUC_TAU",60400 ng·h/mL
